This note sets out measurements from US11939324B2, “Compounds for the treatment of epilepsy, neurodegenerative disorders and other CNS disorders” (reMYND N.V., priority 2017, dated 2024).

≈ marks a conversion by molar mass, not a printed value.

Assay [1] relates to M17-TAU P301L cells. Kind of assay: Cytosolic calcium (Fura-2) in M17-TAU P301L cell model of calcium dyshomeostasis. Type of assay: cell-based. To be noted: Homo sapiens, Fura-2 340/380 nm ratio, read-out: EC50 value of lowering cytosolic Ca^2+. Here is the method:
Cystosic calcium was measured by loading the cells with a medium containing Fura-2 AM (Sigma-Aldrich), a cell permeable fluorescent probe for Ca^2+. Fura-2-AM was dissolved in DMSO plus 20% Pluronic Acid (F-127) (Invitrogen) in a 1:1 ratio and diluted in medium to a final concentration of 0.5 μM. To this loading medium probenecid (Sigma-Aldrich) was added to a final concentration of 2.5 mM. Then, culture medium was replaced by loading medium and after incubation for 1 hour at 37° C. cells were washed twice and replaced with HBSS (Gibco) supplemented with 0.2% FBS and 0.02M HEPES. Next, changes in cytosolic calcium were measured using a FlexStation 3 microplate reader (Molecular Devices) and quantified ratiometric, by calculating changes in the amount of cytosolic Ca^2+ bound Fura-2 (fluorescence intensity at 340 nm) relative to the amount of Ca^2+ unbound Fura-2 (fluorescence intensity at 380 nm). Data was processed in SoftMax Pro 5.4.6 software (Molecular Devices).
In addition compounds were tested to lower the elevated cytosolic calcium levels. In the presence of the compounds these cytosolic calcium levels were decreased.
Compounds were tested to lower the elevated cytosolic Ca^2+ levels in the cell model of calcium dyshomeostasis (FIG. 1B) as described in example 10.
Exemplary compounds of the present invention are shown in Table 2, with their chemical structure and their EC50 value of lowering cytosolic Ca^2+ (expressed in μg/ml).

Assay [2] concerns M17-TAU P301L cells. Kind of assay: TAU-induced toxicity: LDH leakage of retinoic acid incubated M17-TAU P301L cells. Type of assay: cell-based, human. To be noted: for EC50: Homo sapiens, reduction of LDH activity of retinoic acid incubated M17-TAU P301L cells, read-out: EC50 (μg/ml) TAU-induced toxicity. The source says:
A TAU expression plasmid was constructed by sub-cloning the cDNA of human TAU-P301L (encoding for TAU with proline 301 substituted by a leucine residue) into mammalian expression vector pcDNA3.1 resulting in plasmid pcDNA3.1-TAU P301L. Plasmids pcDNA3.1 and pcDNA3.1-TAU P301L were transfected to human neuroblastoma cells ([…]; ATCC No. CRL-2267) and independent clonal lines with the plasmids stably integrated into the genome were selected. […] Expression of the TAU P301L genes in the cell lines was confirmed by Western analysis.
In degenerated or dead cells lactate dehydrogenase (LDH) leaks out of the cells into the extracellular environment due to a loss of plasma-membrane integrity. This principle was used to determine cytotoxicity by quantifying the level of leaked LDH into the growth medium relative to the sum of total LDH activity from living cells and dead cells.
The detailed method for determining cytotoxicity was as follows: From appropriate precultures of M17-3.1 and M17-TAU(P301L) cells were seeded at 2500 cells/cm2 in Optimem Reduced Serum without phenol red (Gibco, Cat. 31985-047) supplemented with 1% fetal calf serum, 1 mM sodium pyruvate, 1× non-essential amino acids, 500 μg/ml G418 0.5× antibiotic/antimycotic. After 3 hours of incubation at 37° C./5% CO2 1 volume of Optimem Reduced Serum (same as described above; except without fetal calf serum) supplemented with 2.5 μM all-trans retinoic acid (ATRA) was added. The cells were further incubated for 7 days. Subsequently, LDH activity was determined using Promega Cytotox 96 Non-Radioactive cytotoxicity assay, (Cat. G1780) according the supplier's instructions.
The M17-TAU P301L cell line made it possible to assess the ability of novel compounds to counteract TAU cytotoxicity. […] These measurements were used to calculate EC50 values.
Exemplary compounds of the present invention are shown in Table 1, with their chemical structure and their EC50 value (expressed in μg/ml) as determined from example 12 in the TAU-induced toxicity experiment.
(LDH leaks from cells whose membrane has failed.)

Regarding `O=C(NCCc1c[nH]c2ccc(F)cc12)c1cc(Cc2ccc(F)cc2F)on1` [Compound 1], the EC50 in assay [1] is 1 ng/mL; in assay [2], 0.002 µg/mL (≈ 5.01 nM).

As to `O=C(NCCc1c[nH]c2ccc(F)cc12)c1cc(Cc2ccc(F)c(F)c2)on1` [Compound 2], the EC50 in assay [1] worked out at 1.4 ng/mL; in assay [2], 0.002 µg/mL (≈ 5.01 nM).

Take `O=C(NCCc1c[nH]c2ccc(F)cc12)c1cc(Cc2cc(F)cc(F)c2)on1` [Compound 3]: the results for the EC50 in assay [1] and in assay [2] were 2.4 ng/mL and 0.0021 µg/mL (≈ 5.26 nM), respectively.

For `O=C(NCCc1c[nH]c2ccc(F)cc12)c1cc(Cc2ccc(F)cc2)on1` [Compound 4], the EC50 in assay [1] worked out at 3.5 ng/mL; in assay [2], 0.0022 µg/mL (≈ 5.77 nM).

`O=C(NCCc1c[nH]c2ccc(F)cc12)c1cc(Cc2cccc(F)c2F)on1` [Compound 5]: the EC50 worked out at 7.1 ng/mL in assay [1] and 0.0028 µg/mL (≈ 7.01 nM) in assay [2].

Regarding `O=C(NCCc1c[nH]c2ccc(F)cc12)c1cc(Cc2ccccc2F)on1` [Compound 7], the EC50 was determined as 4.7 ng/mL in assay [1] and 0.0043 µg/mL (≈ 11.3 nM) in assay [2].

For the compound `COC(=O)C1=C(C)NC(C)=C(C(=O)OC(C)C)C1c1cccc2nonc12` (stereo not shown) [isradepine, reference compound], the “toxicity (LDH leaked into the medium) of RA-incubated cells” value in assay [2] (FIG. 2, M17-TAU P301L cells with RA) is “toxicity is reduced”.
